According to patent publication US11198687B2, “Heteroaryl allosteric modulators of nicotinic acetylcholine receptors” (Merck Sharp & Dohme Corp., priority 2017, dated 2021):
Like-named read-outs stand apart in the source and are kept apart here.

Biological target: human α7 nAChR (Homo sapiens, UniProt P36544)
Test: Automated patch-clamp electrophysiology functional assay (Assay A)
Assay type: cell-based
Conditions: IonFlux HT whole-cell population patch, HEK cell line stably expressing human RIC-3 and human α7, 40 μM acetylcholine
Protocol: The α7 nAChR positive allosteric modulator (PAM) activity of the present compounds may be tested using assays known in the art. […] The assay was performed using the IonFlux HT in a whole-cell, population patch configuration. See Golden et al. Assay Drug Dev. Technol. (2011) 9:608-619. The compounds were assessed for their ability to modulate the function of the human α7 nAChR stably expressed in a HEK cell line both in the presence, and in the absence of the natural α7 agonist acetylcholine. By performing a series of such measurements at different concentrations, the effective concentration of the α7 nAChR PAMs (EC50) was determined. See Spencer et al. Assay Drug Dev. Technol. (2012) 10:313-324.
Direct activation of α7 (agonism), and potentiation of acetylcholine-evoked α7 currents was determined as follows:
Automated Patch-Clamp Electrophysiology Functional Assay (Assay A)
Automated patch-clamp electrophysiology was performed using the IonFlux HT (Fluxion Biosciences Inc., San Francisco, Calif.) in the whole-cell, population patch configuration. Test compounds were assessed for their ability to modulate the function of the α7 nicotinic acetylcholine receptor both in the presence, and in the absence of the natural α7 agonist acetylcholine. A HEK cell line stably expressing both human RIC-3 and human α7 (PrecisION hnAChR α7/RIC-3, Eurofins Pharma, St. Charles, Mo.) was cultured in 175 cm^2 triple-layer tissue culture flasks to no more than 90% confluency in DMEM/F-12 growth media supplemented with 10% heat-inactivated fetal bovine serum, 1% non-essential amino acids, 0.625 μg/mL Puromycin, and 400 μg/mL Geneticin. Immediately prior to assay, cells were detached by first aspirating growth media, rinsing with Dulbecco's phosphate buffered saline, and then adding 10 mL of Accutase (Innovative Cell Technologies, San Diego, Calif.) to the flask and then incubating at 37° C. for 5 minutes. Detached cells were then recovered by the addition of 40 mL of CHO-serum-free media supplemented with 25 mM HEPES, and rocked gently in a 50 mL conical tube for 20 minutes prior to patch-clamp assay. […] The cell suspension was added to the cell inlet wells on an IonFlux HT population patch plate which had previously been rinsed and primed with deionized H2O. Test compounds were serially diluted in DMSO and then resuspended to the final test concentration in external recording solution, with, or without 40 μM acetylcholine added to the external recording solution; test compounds were then transferred to the lonFlux HT population patch plate. Internal recording solution (110 mM TrisPO4, 28 mM TrisBase, 0.1 mM CaCl2, 2 mM MgCl2, 11 mM EGTA, 4 mM MgATP) was added to the internal recording solution inlet wells on the IonFlux HT patch plate previously loaded with cells and test compounds, and the plate loaded into the IonFlux HT instrument. A protocol was executed on the IonFlux HT to trap the cells, break into the cells, and establish the whole-cell recording configuration; cells were voltage-clamped at a holding potential of −60 mV for the duration of the experiment, all experiments were conducted at room temperature, and the IonFlux HT injection pressure was 8 psi for solution applications. Upon establishing the whole-cell configuration, external recording solution was perfused into the recording chambers for 120 seconds and then 40 μM acetylcholine was applied for 1 second and immediately washed off with external recording solution for 60 seconds. The 40 μM acetylcholine-evoked α7 current served as the current response to which subsequent test compound effects, in the presence, or in the absence of 40 μM acetylcholine would be quantified relative to. Next, test compounds were evaluated at multiple concentrations for their ability to induce, or modulate α7 current responses; three concentrations of test compound were evaluated in ascending dose fashion per recording.

Chain of human α7 nAChR (P36544 23-502): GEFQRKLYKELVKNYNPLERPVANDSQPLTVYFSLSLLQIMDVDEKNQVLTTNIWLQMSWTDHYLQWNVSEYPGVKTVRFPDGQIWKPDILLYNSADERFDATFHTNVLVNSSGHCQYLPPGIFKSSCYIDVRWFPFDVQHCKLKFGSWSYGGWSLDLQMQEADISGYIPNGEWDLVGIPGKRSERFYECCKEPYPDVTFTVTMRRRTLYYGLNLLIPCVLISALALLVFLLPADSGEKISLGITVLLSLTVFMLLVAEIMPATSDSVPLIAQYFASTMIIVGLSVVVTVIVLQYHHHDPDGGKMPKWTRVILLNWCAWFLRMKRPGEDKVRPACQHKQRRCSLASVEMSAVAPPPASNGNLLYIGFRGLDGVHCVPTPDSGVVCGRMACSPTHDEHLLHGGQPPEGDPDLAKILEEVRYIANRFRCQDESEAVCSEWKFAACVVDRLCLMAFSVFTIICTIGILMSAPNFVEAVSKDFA

SMILES	EC50 (read-out: α7 nAChR Potency)	EC50 (read-out: α7 nAChR EC50)
COc1ccc(Cl)cc1-c1noc([C@H]2[C@H](c3ccc(S(N)(=O)=O)cn3)C2(C)C)n1 [Example F4, 6-{(1S,3S)-3-[3-(5-Chloro-2-methoxyphenyl)-1,2,4-oxadiazol-5-yl]-2,2-dimethylcyclopropyl}pyridine-3-sulfonamide]	500 to 5000 nM	–
CC1(C)[C@@H](c2ccc(S(N)(=O)=O)nc2)[C@@H]1c1nc(CC2CC2)no1 [Example B10, 5-{(1S,3S)-3-[3-(Cyclopropylmethyl)-1,2,4-oxadiazol-5-yl]-2,2-dimethylcyclopropyl}pyridine-2-sulfonamide]	500 to 5000 nM	1600 nM
CC(C)c1noc([C@@H]2[C@@H](c3ccc(S(N)(=O)=O)nc3)C2(C)C)n1 [Example A14, 5-{(1R,3R)-2,2-Dimethyl-3-[3-(propan-2-yl)-1,2,4-oxadiazol-5-yl]cyclopropyl}pyridine-2-sulfonamide]	500 to 5000 nM	570 nM
NS(=O)(=O)c1ccc([C@@H]2C[C@H]2c2nc(-c3ccccc3)no2)nc1 (racemic) [Example G6, 6-[trans-2-(3-Phenyl-1,2,4-oxadiazol-5-yl)cyclopropyl]pyridine-3-sulfonamide]	500 to 5000 nM	1300 nM
CC1(C)C(c2ccc(S(N)(=O)=O)nc2)C1c1cc(-c2cccc(F)c2)no1 (racemic) [Example C3, 5-{trans-3-[3-(3-Fluorophenyl)isoxazol-5-yl]-2,2-dimethylcycpropyl}pyridine-2-sulfonamide]	100 to 500 nM	430 nM
CC1(C)[C@@H](c2ccc(S(N)(=O)=O)cn2)[C@@H]1c1nc(C2CC2)no1 [Example F8, 6-[(1S,3S)-3-(3-Cyclopropyl-1,2,4-oxadiazol-5-yl)-2,2-dimethylcyclopropyl]pyridine-3-sulfonamide]	500 to 5000 nM	1400 nM
CC1(C)[C@H](c2ccc(S(N)(=O)=O)nc2)[C@H]1c1nc(-c2ccccc2)no1 [Example A1, 5-[(1R,3R)-2,2-Dimethyl-3-(3-phenyl-1,2,4-oxadiazol-5-yl)cyclopropyl]pyridine-2-sulfonamide]	500 to 5000 nM	1500 nM
CC1(C)[C@H](c2ccc(S(N)(=O)=O)cn2)[C@H]1c1nc(C2CCCC2)no1 [Example E2, 6-[(1R,3R)-3-(3-Cyclopentyl-1,2,4-oxadiazol-5-yl)-2,2-dimethylcyclopropyl]pyridine-3-sulfonamide]	500 to 5000 nM	3200 nM

Now from value to molecule:

EC50 (read-out: α7 nAChR Potency)	EC50 (read-out: α7 nAChR EC50)	SMILES
500 to 5000 nM	4200 nM	CC(C)c1noc([C@H]2[C@H](c3ncc(S(N)(=O)=O)s3)C2(C)C)n1 (racemic) [Example D5, 2-{trans-2,2-Dimethyl-3-[3-(propan-2-yl)-1,2,4-oxadiazol-5-yl]cyclopropyl}-1,3-thiazole-5-sulfonamide]
500 to 5000 nM	650 nM	CC1(C)[C@H](c2ccc(S(N)(=O)=O)nc2)[C@H]1c1nc(-c2cccc(F)c2)no1 [Example A7, 5-{(1R,3R)-3-[3-(3-Fluorophenyl)-1,2,4-oxadiazol-5-yl]-2,2-dimethylcyclopropyl}pyridine-2-sulfonamide]
500 to 5000 nM	3000 nM	CC1(C)[C@@H](c2ccc(S(N)(=O)=O)nc2)[C@@H]1c1nc(-c2cccc(C(F)(F)F)c2)no1 [Example B5, 5-[(1S,3S)-2,2-Dimethyl-3-{3-[3-(trifluoromethyl)phenyl]-1,2,4-oxadiazol-5-yl}cyclopropyl]pyridine-2-sulfonamide]
500 to 5000 nM	1600 nM	CC1(C)[C@@H](c2nc(-c3cncc(F)c3)no2)[C@@H]1c1ncc(S(N)(=O)=O)s1 (racemic) [Example D3, 2-{trans-3-[3-(5-Fluoropyridin-3-yl)-1,2,4-oxadiazol-5-yl]-2,2-dimethylcyclopropyl}-1,3-thiazole-5-sulfonamide]
500 to 5000 nM	1200 nM	COc1ccc(Cl)cc1-c1noc([C@H]2[C@H](c3ncc(S(N)(=O)=O)s3)C2(C)C)n1 (racemic) [Example D7, 2-{trans-3-[3-(5-Chloro-2-methoxyphenyl)-1,2,4-oxadiazol-5-yl]-2,2-dimethylcyclopropyl}-1,3-thiazole-5-sulfonamide]
